# Source: patent publication US11976083B2, “Inhibitors of peptidylarginine deiminases” (Gilead Sciences, Inc., priority 2020, dated 2024)
# Target: T1, human PAD4 (Homo sapiens, UniProt Q9UM07)
# T1 construct: human PAD4 (NM_012387), A2-P663, was PCR amplified; His-SUMO (N, cleaved yes); made in house; host or cells: E. coli BL21(DE3)
# Experiment: In vitro PAD4 BAEE biochemical assay
# Settings: BAEE substrate 3 mM, 5 nM PAD4, 2 mM calcium chloride; geometric mean of multiple experiments
# Outline: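 PAD4 5 nM, CaCl2 2 mM, BAEE 3 mM final; 50 mM MOPS pH 7.6, 50 mM NaCl, 0.05% Tween-20, 2 mM DTT. Cpd + enzyme 30 min 25 °C; substrate 2 h 25 °C; EDTA stop; OPA detection 1 h. IC50 4-parameter fit.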
# T1 sequence (Q9UM07 2-663): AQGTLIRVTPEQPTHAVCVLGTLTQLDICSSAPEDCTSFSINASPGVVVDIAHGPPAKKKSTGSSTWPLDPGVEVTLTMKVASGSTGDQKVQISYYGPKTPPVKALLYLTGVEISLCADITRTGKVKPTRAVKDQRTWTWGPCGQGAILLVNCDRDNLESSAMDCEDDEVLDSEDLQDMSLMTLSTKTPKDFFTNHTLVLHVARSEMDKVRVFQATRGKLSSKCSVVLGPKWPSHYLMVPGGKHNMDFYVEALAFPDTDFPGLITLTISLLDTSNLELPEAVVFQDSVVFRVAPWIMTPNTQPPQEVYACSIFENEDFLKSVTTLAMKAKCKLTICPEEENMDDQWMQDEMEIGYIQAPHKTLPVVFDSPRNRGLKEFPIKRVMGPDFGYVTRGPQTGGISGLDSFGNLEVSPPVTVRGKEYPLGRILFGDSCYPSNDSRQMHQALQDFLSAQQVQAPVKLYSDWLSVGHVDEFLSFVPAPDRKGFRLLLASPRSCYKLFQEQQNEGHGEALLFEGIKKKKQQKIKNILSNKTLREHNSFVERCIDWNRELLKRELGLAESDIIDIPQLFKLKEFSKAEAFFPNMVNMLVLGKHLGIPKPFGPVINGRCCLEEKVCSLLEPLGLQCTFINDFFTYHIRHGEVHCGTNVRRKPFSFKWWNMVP
row,SMILES,IC50 [nM]
1,"COc1cc(C(=O)N2[C@H]3CC[C@@H]2[C@H](N)C3)cc2nc(-c3cc4ccc5nc4n3CCCCCCOc3ccccc3C(=O)N[C@@H]5C)c(C)n12 [Example 213, (2~{R})-19-[7-[(1~{R},2~{R},4~{S})-2-amino-7-azabicyclo[2.2.1]heptane-7-carbonyl]-5-methoxy-3-methyl-imidazo[1,2-a]pyridin-2-yl]-2-methyl-11-oxa-3,18,24-triazatetracyclo[16.5.2.0^{5,10}.0^ {21,25}]pentacosa-1(24),5(10),6,8,19,21(25),22-heptaen-4-one]",385
2,"COc1cc(C(=O)N2[C@H]3CC[C@@H]2[C@H](N)C3)cc2nc(-c3cc4ccc5nc4n3C[C@H]3C[C@@H]3COCCC(=O)N[C@@H]5C)c(C3CC3)n12 [Example 214, (3~{S),5~{S},12~{R})-18-[7-[(1~{R},2~{R},4~{S})-2-amino-7-azabicyclo[2.2.1]heptane-7-carbonyl]-3-cyclopropyl-5-methoxy-imidazo[1,2-a]pyridin-2-yl]-12-methyl-7-oxa-1,11,20-triazatetracyclo[11.5.2.0^{3,5}.0^{16,19}] icosa-13(20),14,16(19),17-tetraen-10-one]",15
3,"COc1cc(C(=O)N2[C@H]3CC[C@@H]2[C@H](N)C3)cc2nc(-c3cc4ccc5cc4n3CCCCCCCC(=O)N[C@@H]5C)n(C)c12 [Example 215, (11˜{R})-17-[5-[(1˜{R},2˜{R},4˜{S})-2-amino-7-azabicyclo[2.2.1]heptane-7-carbonyl]-7-methoxy-1-methyl-benzimidazol-2-yl]-11-methyl-1,10-diazatricyclo[10.5.2.0^{15,18}]nonadeca-12(19),13,15(18),16-tetraen-9-one]",20
4,"COc1cc(C(=O)N2[C@H]3CC[C@@H]2[C@H](N)C3)cc2nc(-c3cc4ccc5cc4n3CCCCCCC(C)(C)C(=O)N[C@@H]5C)n(C)c12 [Example 216, (11˜{R})-17-[5-[(1˜{R},2˜{R},4˜{S})-2-amino-7-azabicyclo[2.2.1]heptane-7-carbonyl]-7-methoxy-1-methyl-benzimidazol-2-yl]-8,8,11-trimethyl-1,10-diazatricyclo[10.5.2.0^{15,18}]nonadeca-12(19),13,15(18),16-tetraen-9-one]",33
5,"COc1cc(C(=O)N2[C@H]3CC[C@@H]2[C@H](N)C3)cc2nc(-c3cc4ccc5nc4n3C[C@H]3C[C@@H]3COCCC(=O)N[C@@H]5C)n(C)c12 [Example 217, (3~{S},5~{S},12~{R})-18-[5-[(1~{R},2~{R},4~{S})-2-amino-7-azabicyclo[2.2.1]heptane-7-carbonyl]-7-methoxy-1-methyl-benzimidazol-2-yl]-12-methyl-7-oxa-1,11,20-triazatetracyclo[11.5.2.0^{3,5}.0^{16,19}] icosa-13(20),14,16(19),17-tetraen-10-one]",32
6,"COc1cc(C(=O)N2[C@H]3CC[C@@H]2[C@H](N)C3)cc2nc(-c3cc4ccc5nc4n3C[C@@H]3C[C@H]3COCCC(=O)N[C@@H]5C)n(C)c12 [Example 218, (3~{R},5~{R},12~{R})-18-[5-[(1~{R},2~{R},4~{S})-2-amino-7-azabicyclo[2.2.1]heptane-7-carbonyl]-7-methoxy-1-methyl-benzimidazol-2-yl]-12-methyl-7-oxa-1,11,20-triazatetracyclo[11.5.2.0^{3,5}.0^{16,19}] icosa-13(20),14,16(19),17-tetraen-10-one]",29
7,"COc1cc(C(=O)N2[C@H]3CC[C@@H]2[C@H](N)C3)cc2nc(-c3cc4ccc5nc4n3CCCCC[C@@H](OC)C(C)(C)C(=O)N[C@@H]5C)n(C)c12 [Example 219, (7~{R},11~{R})-17-[5-[(1~{R},2~{R},4~{S})-2-amino-7-azabicyclo[2.2.1]heptane-7-carbonyl]-7-methoxy-1-methyl-benzimidazol-2-yl]-7-methoxy-8,8,11-trimethyl-1,10,19-triazatricyclo[10.5.2.0^{15,18}]nonadeca-12(19),13,15(18),16-tetraen-9-one]",72
8,"COc1cc(C(=O)N2[C@H]3CC[C@@H]2[C@H](N)C3)cc2nc(-c3cc4ccc5nc4n3CCCCC[C@H](OC)C(C)(C)C(=O)N[C@@H]5C)n(C)c12 [Example 220, (7~{S),11~{R})-17-[5-[(1~{R},2~{R},4~{S})-2-amino-7-azabicyclo[2.2.1]heptane-7-carbonyl]-7-methoxy-1-methyl-benzimidazol-2-yl]-7-methoxy-8,8,11-trimethyl-1,10,19-triazatricyclo[10.5.2.0^{15,18}]nonadeca-12(19),13,15(18),16-tetraen-9-one]",49
9,"COc1cc(C(=O)N2[C@H]3CC[C@@H]2[C@H](N)C3)cc2nc(-c3cc4ccc5cc4n3CCCCCCC3(CC3)C(=O)N[C@@H]5C)n(C)c12 [Example 221, (11~{R})-17-[5-[(1~{R},2~{R},4~{S})-2-amino-7-azabicyclo[2.2.1]heptane-7-carbonyl]-7-methoxy-1-methyl-benzimidazol-2-yl]-11-methyl-spiro[1,10-diazatricyclo[10.5.2.0^{15,18}]nonadeca-12(19),13,15(18),16-tetraene-8,1′-cyclopropane]-9-one]",32
10,"COc1cc(C(=O)N2[C@H]3CC[C@@H]2[C@H](N)C3)cc2nc(-c3cc4ccc5cc4n3CCCCCOC(C)(C)C(=O)N[C@@H]5C)n(C)c12 [Example 222, (11~{R})-17-[5-[(1~{R},2~{R},4~{S})-2-amino-7-azabicyclo[2.2.1]heptane-7-carbonyl]-7-methoxy-1-methyl-benzimidazol-2-yl]-8,8,11-trimethyl-7-oxa-1,10-diazatricyclo[10.5.2.0^{15,18}]nonadeca-12(19),13,15(18),16-tetraen-9-one]",64
11,"COc1cc(C(=O)N2[C@H]3CC[C@@H]2[C@H](N)C3)cc2nc(-c3cc4ccc5cc4n3CCCCCCC3(CC3)C(=O)N[C@@H]5C)n(C3CC3)c12 [Example 225, (11~{R})-17-[5-[(1~{R},2~{R},4~{S})-2-amino-7-azabicyclo[2.2.1]heptane-7-carbonyl]-1-cyclopropyl-7-methoxy-benzimidazol-2-yl]-11-methyl-spiro[1,10-diazatricyclo[10.5.2.0^{15,18}]nonadeca-12(19),13,15(18),16-tetraene-8,1′-cyclopropane]-9-one]",73
12,"COc1cc(C(=O)N2[C@H]3CC[C@@H]2[C@H](N)C3)cc2nc(-c3cc4ccc5nc4n3C[C@H]3C[C@@H]3CCCCC(=O)N[C@@H]5C)n(C)c12 [Example 226, (3~{S},5~{S},12~{R})-18-[5-[(1~{R},2~{R},4~{S})-2-amino-7-azabicyclo[2.2.1]heptane-7-carbonyl]-7-methoxy-1-methyl-benzimidazol-2-yl]-12-methyl-1,11,20-triazatetracyclo[11.5.2.0^{3,5}.0^{16,19}] icosa-13(20),14,16(19),17-tetraen-10-one]",24
13,"COc1cc(C(=O)N2[C@H]3CC[C@@H]2[C@H](N)C3)cc2nc(-c3cc4ccc5nc4n3CCCCCCNC(=O)CC5C)n(C)c12 (stereo partly shown) [Example 227, 17-[5-[(1˜{R},2˜{R},4˜{S})-2-amino-7-azabicyclo[2.2.1]heptane-7-carbonyl]-7-methoxy-1-methyl-benzimidazol-2-yl]-11-methyl-1,8,19-triazatricyclo[10.5.2.0^{15,18}]nonadeca-12(19),13,15(18),16-tetraen-9-one]",154
14,"C[C@H]1NC(=O)CCCCCCCn2c(-c3nc4cc(C(=O)N5CCC[C@@H](N)C5)ccn4c3C3CC3)cc3ccc1nc32 [Example 228, (11~{R})-17-[7-[(3~{R})-3-aminopiperidine-1-carbonyl]-3-cyclopropyl-imidazo[1,2-a]pyridin-2-yl]-11-methyl-1,10,19-triazatricyclo[10.5.2.0^{15,18}]nonadeca-12(19),13,15(18),16-tetraen-9-one]",131
15,"COc1cc(C(=O)N2CCC[C@@H](N)C2)cc2nc(-c3cc4ccc5nc4n3CCCCCCCC(=O)N[C@@H]5C)n(C3CC3)c12 [Example 229, (11~{R})-17-[5-[(3~{R})-3-aminopiperidine-1-carbonyl]-1-cyclopropyl-7-methoxy-benzimidazol-2-yl]-11-methyl-1,10,19-triazatricyclo[10.5.2.0^{15,18}]nonadeca-12(19),13,15(18),16-tetraen-9-one]",72
16,"COc1cc(C(=O)N2CCC[C@@H](N)C2)cc2nc(-c3cc4ccc5nc4n3CCCCCCC(C)(C)C(=O)N[C@@H]5C)n(C3CC3)c12 [Example 230, (11~{R})-17-[5-[(3~{R})-3-aminopiperidine-1-carbonyl]-1-cyclopropyl-7-methoxy-benzimidazol-2-yl]-8,8,11-trimethyl-1,10,19-triazatricyclo[10.5.2.0^{15,18}]nonadeca-12(19),13,15(18),16-tetraen-9-one]",84
17,"COc1cc(C(=O)N2CCC[C@@H](N)C2)cc2nc(-c3cc4ccc5nc4n3CCCCCCC(=O)N[C@@H]5C)n(C3CC3)c12 [Example 231, (10~{R})-16-[5-[(3~{R})-3-aminopiperidine-1-carbonyl]-1-cyclopropyl-7-methoxy-benzimidazol-2-yl]-10-methyl-1,9,18-triazatricyclo[9.5.2.0^{14,17}]octadeca-11(18),12,14(17),15-tetraen-8-one]",84
18,"COc1cc(C(=O)N2CCC[C@@H](N)C2)cc2nc(-c3cc4ccc5nc4n3CCCCCCCC(=O)NC5)n(C)c12 [Example 232, 17-[5-[(3~{R})-3-aminopiperidine-1-carbonyl]-7-methoxy-1-methyl-benzimidazol-2-yl]-1,10,19-triazatricyclo[10.5.2.0^{15,18}]nonadeca-12(19),13,15(18),16-tetraen-9-one]",549
19,"COc1cc(C(=O)N2CCC[C@@H](N)C2)cc2nc(-c3cc4ccc5nc4n3CCCCCCC3(CC3)C(=O)N[C@@H]5C)n(C)c12 [Example 233, (11~{R})-17-[5-[(3~{R})-3-aminopiperidine-1-carbonyl]-7-methoxy-1-methyl-benzimidazol-2-yl]-11-methyl-spiro[1,10,19-triazatricyclo[10.5.2.0^{15,18}]nonadeca-12(19),13,15(18),16-tetraene-8,1′-cyclopropane]-9-one]",82
